Laboratory results: PMC9317966, “Structure-function analysis of the AMPK activator SC4 and identification of a potent pan AMPK activator” (Biochemical Journal, 2022)

Columns and labels:
Type in all cases: cell-based
[1] = tested on: HEK293T/17 cells expressing WT γ1AMPK; assay: α-Thr172 phosphorylation immunoblot, HEK293T/17 cells transiently expressing WT γ1AMPK; conditions: WT γ1-expressing cells, 2.5 µM, 60 min
Description: (§1) To explore this dose-dependent response, we used HEK293T/17 cells transiently expressing WT γ1AMPK or the AMP-insensitive γ1 mutant R299G (Supplementary Figure S4A). […] One explanation is that 2.5 µM MK-8722 caused indirect activation of AMPK (α-Thr172 phosphorylation) by inducing a metabolic stress leading to rises in AMP/ATP and ADP/ATP ratios. We examined the effect of MK-8722 incubation on C2C12 mitochondrial function (Supplementary Figure S4B–I).
(§2) HEK293T/17, HEK293T, COS7, HeLa and PC3 cells (ATCC) were maintained in Dulbecco's Modified Eagle's medium (DMEM; Sigma–Aldrich) supplemented with 10% fetal bovine serum (FBS; Assay Matrix) at 37°C and 5% CO2. Primary hepatocytes from wild type mice were prepared using the collagenase perfusion method and cultured as described previously. […]
(§3) All samples were separated on 12% SDS–PAGE gels and transferred to an Immobilon-FL PVDF membrane (Merck Millipore). […] Immunoblots were visualised on the Odyssey Infrared Imaging System (LI-COR Biosciences) and immunoreactive bands analysed and quantified using Image Studio Software (LI-COR Biosciences).
(§4) Lysates were assessed for phosphorylation of AMPKα-Thr172 by immunoblot. n = 3, data presented as mean T172 phosphorylation (arbitrary units) ± SEM. […] (J) Lysates were assessed for total protein content following the respiration assay.

[2] = tested on: HEK293T/17 cells expressing γ1-R299G AMPK; assay: α-Thr172 phosphorylation immunoblot, HEK293T/17 cells expressing AMP-insensitive γ1 mutant R299G; conditions: 2.5 µM
Description: as §1, §2, §3, §4

HeLa cells = assay: Immunoblot of AMPK signalling in HeLa cells; conditions: 2.5 µM, 1 h
Description: (§5) To evaluate the efficacy of MSG011 in cellulo, we incubated mouse primary hepatocytes with 2.5 µM MSG011 for 60 min and tracked changes in phosphorylation of AMPK α-Thr172 (marker of activation) and the AMPK substrate acetyl-CoA carboxylase (ACC) Ser79 (AMPK signalling marker).
(§6) HEK293T/17, HEK293T, COS7, HeLa and PC3 cells (ATCC) were maintained in Dulbecco's Modified Eagle's medium (DMEM; Sigma–Aldrich) supplemented with 10% fetal bovine serum (FBS; Assay Matrix) at 37°C and 5% CO2. Primary hepatocytes from wild type mice were prepared using the collagenase perfusion method and cultured as described previously. Cultures were incubated with fresh DMEM (no FBS) for 2 h prior to 1 h treatment with MSG011 (dissolved in DMSO) or phenformin (dissolved in H2O). Adherent HEK293T/17 cells at ∼50% confluency were triply transfected with AMPK α1 (pcDNA3.1 vector), β1 (COOH-terminal MYC fusion, pcDNA3.1 vector) and WT γ1 or γ1-R299G mutant (NH2-terminal HA fusion, pMT2 vector) in the presence of FuGENE HD transfection reagent (Promega) as per the manufacturers protocol. […]
as §3

[3] = tested on: mouse primary hepatocytes; assay: Immunoblot of AMPK signalling in mouse primary hepatocytes; conditions: 2.5 µM, 60 min
Description: as §5, §6, §3

HEK293T cells = assay: Adenylate energy charge by LC-MS in HEK293T cells; conditions: MSG011 up to 40 µM, 1 h
Description: HEK293T cell cultures grown in six-well plates were gently washed in ice cold PBS, lysed with 150 µl of ice cold 0.5 M perchloric acid (Univar) and clarified by centrifugation (16 000g, 3 min, 4°C). An amount of 75 µl of clarified lysate was neutralised with 25 µl of ice cold 2.3 M KHCO3 (Sigma–Aldrich), incubated on ice for 5 min and then centrifuged (16 000g, 3 min, 4°C). Supernatants were collected for analysis by liquid chromatography mass spectrometry–mass spectrometry (LC–MS/MS).
Adenine nucleotide metabolites were measured by LC–MS/MS with modifications to our previously described method. A QTRAP 5500 mass spectrometer (AB Sciex) was operated with the turbo V ion source linked to Prominence UFLCXR LC-20ADXR pumps (Shimadzu), SIL-20AC HT autosampler (Shimadzu) and CTO-20A HPLC column oven (Shimadzu). Both LC and MS instruments were controlled and managed with the Analyst 1.7.1 software (AB Sciex). Nitrogen was provided by a Genius NM3G nitrogen gas generator (PEAK Scientific). […] Data was analysed with MultiQuant 3.0.2 software (AB Sciex) using area under the LC curve. Calibration curves were determined by linear regression of the peak area ratio of each nucleotide and were required to have a correlation coefficient (R^2) of >0.98. […] AEC was calculated from the ratios of [AMP], [ADP] and [ATP] […]

PC3 cells = assay: Immunoblot of AMPK signalling in PC3 cells; conditions: PC3, 2.5 µM, 1 h
Description: as §5, §6, §3

| adenylate energy charge (AEC) (HEK293T cells) | SMILES | phosphorylation of α-Thr172 [1] | decrease of induced α-Thr172 phosphorylation relative to WT γ1 cells [2] | effect on phosphorylation of α-Thr172 ([2]; 60 min) | AMPK signalling (phosphorylation of ACC-Ser79 and raptor-Ser792) (HeLa cells) | phosphorylation of AMPK α-Thr172 [3] | AMPK signalling (phosphorylation of ACC-Ser79 and raptor-Ser792) (PC3 cells) | α-Thr172 phosphorylation (PC3 cells) |
| --- | --- | --- | --- | --- | --- | --- | --- | --- |
| – | O[C@@H]1CO[C@H]2[C@@H]1OC[C@H]2Oc1nc2nc(-c3ccc(-c4ccccc4)cc3)c(Cl)cc2[nH]1 [MK-8722, reference compound] | significantly increased | ~55% | largely abrogated | – | – | – | – |
| unaffected | CC(=O)NC1CC=C(c2ccc(-c3nc4nc(Oc5ccc(C)c(C(=O)O)c5)[nH]c4cc3Cl)cc2)CC1 (centres unmarked) [MSG011, 5-((5-(4′-Acetamido-2′,3′,4′,5′-tetrahydro-[1,1′-biphenyl]-4-yl)-6-chloro-1H-imidazo[4,5-b]pyridin-2-yl)oxy)-2-methylbenzoic acid] | – | – | – | significantly activated AMPK | independently of significant net phosphorylation of AMPK α-Thr172 | significantly activated AMPK | independent of changes to α-Thr172 phosphorylation |
